Structures can show the parent of a compound that is named as a salt. Where two headings read alike, the source gives them in different places.
Columns and labels:
[1] = Solubility of free base and salts in 6 different media (UPLC-UV); assay type: physicochemical; details: target concentration 30 mg/ml; for solubility at 24 h: thermodynamic from solid
Description: The following protocol has been used to prepare samples for solubility measurements at room temperature in the 6 different media. First, weigh appropriate amount of each salt and free base compound to reach the desired target concentration (30 mg/ml). Addition at room temperature the studied media to reach the selected target concentration, follow by orbital stirring at room temperature for 24 h, while protected from light. Except for the glycerin medium, separation of the soluble fraction from the non-soluble fraction is performed by centrifugation (15 min at 18000 rpm) followed by filtration on PTFE 0.45 μm membrane. For the glycerin medium, 3 steps of centrifugation (15 mw at 18000 rpm) to collect the supernatant was performed. The resulting filtrates and supernatant for glycerin medium were diluted in appropriate solvents described in the following table to be in the range of calibration curve. Quantification of the diluted and undiluted samples was performed using UPLC-UV.
A standard calibration curve (chromatographic UV peak area vs concentration) between 0.5 μg/mL and 500 μg/mL was established in DMSO according to the following protocol. First, weighing 1 mg free base, then addition of DMSO until a 1 mg/mL clear DMSO Stock solution is obtained. Next, selected compound DMSO solutions at 5 different concentrations (500 ag/mL, 250 ag/mL, 100 ag/ml, 25 μg/ml and 0.5 μg/mL) were prepared by dilution with pure DMSO.
Samples were analysed by UPLC-UV-MS according to the following: (a) Instrument: Waters Acquity H-Class with PDA and QDa detectors; (b) Column: Waters Acquity BEH C18, 1.7 m, 2.1×50 mm; (c) Flow rate: 0.65 ml/min; (d) UV detection: 220 nm, 254 nm, 290 nm; (e) Column temperature: 40° C.; (f) Injection volume: 0.4 μl; (g) Mobile phase: Gradient with solutions A and B prepared according to Table 6; (h) Ionisation mode: ESI+/ESI−; (i) Source temperature: 600° C.; (j) Capillary voltage: 0.8 kV; and (k) Cone voltage: +20V/−20V.
(§1) The target concentration tested to measure the maximum solubility of the 3 salts (phosphate, malonate and malate) and free base in 6 different media was 30 mg/ml. Solids in suspension in water solubility assays have been collected by centrifugation (15 min at 18000 rpm) after 24 h stirring for XRPD analysis. Recorded XRPD patterns have been compared to the one recorded for the salts or free base as received (see FIGS. 8-11).

[2] = XRPD analysis of solid residues collected from the water solubility assay; assay type: physicochemical; details: solids in suspension in water collected after 24 h stirring, compared to material as received
Description: XRPD analysis was conducted with a Bruker D8-Advance diffractometer, type: Bragg-Bentano. Source CuKα1, λ=1.5406 Å and CuKα2, λ2=1.54439 Å. Generator: 35 kV-40 mA. Detector: Lynx Eye.
The sample was analyzed using the following protocol: Around 3 mg of the test compound delivered as solid material is gently grounded to homogenize the powder and deposed on zero-diffraction Silicon sample holder. The sample holder is then placed in the X-Ray Diffractometer chamber.
The copper anode X-ray source is turned on using a generator set at 35 kV voltage and at 40 mA intensity. While X-ray beam irradiates the sample, both X-ray source and X-ray detector move on the goniometer with equal 0 angle: diffractometer in Bragg-Brentano configuration. XRPD pattern is recorded in the [2°; 40°] 2θ angle range by step of 0.040 in 20 and for 1 second at each angle step.
as §1

[3] = In vitro permeation testing in Franz cells; assay type: in vitro ADME; details: human abdominal skin, Franz cell
Description: In vitro permeation testing was performed using human abdominal skin from 3 donors and 2 samples per donor with a thickness of 400 μm (±100 μm). The samples were used in Franz cell 2 cm^2 of diameter and a receptor volume of 3 mL (PBS+4% BSA (Bovine Serum Albumin).
The receptor compartment was surrounded by a water jacket heated to 37° C.±1° C. insuring a skin surface temperature of 32° C.±1° C. The receptor compartment is separated from the donor compartment by the skin membrane where the epidermis side faces the donor. Receptor compartments containing magnetic stirrer bar, were filled with the receptor fluid in such a way to prevent any formation of air-bubbles. During the diffusion experiment, receptor fluids were continuously stirred in order to ensure homogenization.
Abdominal skins from aesthetic surgery were used in this study. Skins, upon arrival, were separated from hypodermis with the help of tweezers and a scalpel blade. Skins were gently washed and stored flat in aluminum foil for freezing at −20° C. At the day of experiment, skins were thawed then cut in smaller pieces to fit with diffusion cell geometry. In this experiment three donors were used. Skin specimens were mounted onto Franz diffusion cells with PBS+4% Bovine Serum Albumin as a receptor fluid. […]
Following at least 45 min equilibrium with receptor fluid, skin integrity is assessed by Transepidermal Water Loss (TEWL) measurements. […] TEWL is again measured and cells still depicting a high water flux are recorded. […] Individual TEWL values for each skin specimen used, room temperature and relative humidity were also recorded.
Test Items were applied at a dose of 5 mg/cm^2 for 24 hours on the skin samples in the Franz cell. At the end of exposure, the following samples were recovered: Stratum corneum (not analysed), epidermis, dermis and receptor fluid were collected analysed for API content.
The samples were analyzed following LC/MS/MS method internally certified. […] Percutaneous fluxes were calculated as the ratio of permeated amounts in receptor fluid (RF) of each individual cell to the duration of exposure (24 h).

[4] = Glycerin/Water 5/95 (v/v), aqueous with cosolvent or surfactant or cyclodextrin, Glycerin/Water 5/95 (v/v), room temperature, 24 h, read-out: Solubility, Glycerin/Water 5/95 (v/v)
[5] = Glycerin/Water 10/90 (v/v), aqueous with cosolvent or surfactant or cyclodextrin, Glycerin/Water 10/90 (v/v), room temperature, 24 h, read-out: Solubility, Glycerin/Water 10/90 (v/v)
[6] = Glycerin/Water 20/80 (v/v), aqueous with cosolvent or surfactant or cyclodextrin, Glycerin/Water 20/80 (v/v), room temperature, 24 h, read-out: Solubility, Glycerin/Water 20/80 (v/v)
[7] = Transcutol/Water 10/90 (v/v), aqueous with cosolvent or surfactant or cyclodextrin, Transcutol/Water 10/90 (v/v), room temperature, 24 h, read-out: Solubility, Transcutol/Water 10/90 (v/v)
[8] = glycerin, organic solvent or mixture, glycerin, room temperature, 24 h, read-out: Solubility, Glycerin
[9] = water, water, orbital stirring at room temperature for 24 h, read-out: Solubility, Water
[10] = 5 mg/cm^2 for 24 hours, 0.63 w/w % phosphate salt vs 0.5 w/w % free base
[11] = Glycerin/Water 5/95 (v/v), room temperature, 24 h
[12] = Glycerin/Water 10/90 (v/v), room temperature, 24 h
[13] = Glycerin/Water 20/80 (v/v), room temperature, 24 h
[14] = Transcutol/Water 10/90 (v/v), room temperature, 24 h
[15] = glycerin, room temperature, 24 h
[16] = water, orbital stirring at room temperature for 24 h

solubility at 24 h [1, 4] [µg/mL] | solubility at 24 h [1, 5] [µg/mL] | solubility at 24 h [1, 6] [µg/mL] | solubility at 24 h [1, 7] [µg/mL] | solubility at 24 h [1, 8] [µg/mL] | solubility at 24 h [1, 9] [µg/mL] | XRPD of solid residues in water [2] | ratio of percutaneous flux over dermis concentration, phosphate salt compared to free base [3, 10] | skin permeability coefficient (Kp), phosphate salt relative to free base [3, 10] [times] | permeability of formulation compared to free base formulation ([3]; 24 hours, 10% w/w propylene glycol of the free base formulation replaced with water) | Solubility, Glycerin/Water 5/95 (v/v) [1, 11] [µg/mL] | Solubility, Glycerin/Water 10/90 (v/v) [1, 12] [µg/mL] | Solubility, Glycerin/Water 20/80 (v/v) [1, 13] [µg/mL] | Solubility, Transcutol/Water 10/90 (v/v) [1, 14] [µg/mL] | Solubility, Glycerin [1, 15] [µg/mL] | Solubility, Water [1, 16] [µg/mL] | Compound
2700 ± 200 | 2900 ± 200 | 3500 ± 200 | 3700 ± 200 | 24700 ± 300 | 2200 | Crystalline Phase conversion |  |  |  |  |  |  |  |  |  | CC(C)CC(C)n1nc(-c2ccc3oc(N)nc3c2)c2c(N)nc(N)nc21.O=C(O)CC(=O)O (stereo not shown) [Malonate Salt]
 |  |  |  |  |  | No crystalline phase conversion | over 600 times | 3 | superior permeability | 4300 ± 200 | 4700 ± 200 | 5700 ± 200 | 5500 ± 200 | 15800 ± 300 | 3900 ± 200 | CC(C)CC(C)n1nc(-c2ccc3oc(N)nc3c2)c2c(N)nc(N)nc21 (stereo not shown) [Phosphate Salt]
2100 ± 300 | 2200 ± 200 | 2900 ± 200 | 3100 ± 300 | 21100 ± 200 | 1600 | No crystalline phase conversion |  |  |  |  |  |  |  |  |  | CC(C)CC(C)n1nc(-c2ccc3oc(N)nc3c2)c2c(N)nc(N)nc21.O=C(O)C[C@H](O)C(=O)O (stereo not shown) [Malate Salt]
 |  |  |  |  |  | No crystalline phase conversion |  |  |  | 29 | 45 | 71 | 256 | 6400 ± 300 | 180 | CC(C)CC(C)n1nc(-c2ccc3oc(N)nc3c2)c2c(N)nc(N)nc21 (stereo not shown) [Free Base, 3-(2-Amino-1,3-benzoxazol-5-yl)-1-(1,3-dimethylbutyl)pyrazolo[3,4-d]pyrimidine-4,6-diamine]

From patent US20250042908A1, “SALTS FOR MTOR COMPOUNDS” (GALDERMA HOLDING S.A., priority 2022, published 2025)
